Source: ChEMBL document CHEMBL1201862, “PubChem BioAssay data set” (2004)
Active and inactive are the calls of the source. No stated cut-off is given here; in the data, actives have a measured IC50 and inactives only a lower limit.

Molecular target: Envelope glycoprotein gp160 (Human immunodeficiency virus 1, UniProt Q6QLK5)
Experiment: cell-free HIV fusion peptide-binding blockers – biochemical, uHTS, fluorescence dequenching, […] (AID 1986)

Chain of Envelope glycoprotein gp160 (Q6QLK5 whole entry, the tested form may be a part): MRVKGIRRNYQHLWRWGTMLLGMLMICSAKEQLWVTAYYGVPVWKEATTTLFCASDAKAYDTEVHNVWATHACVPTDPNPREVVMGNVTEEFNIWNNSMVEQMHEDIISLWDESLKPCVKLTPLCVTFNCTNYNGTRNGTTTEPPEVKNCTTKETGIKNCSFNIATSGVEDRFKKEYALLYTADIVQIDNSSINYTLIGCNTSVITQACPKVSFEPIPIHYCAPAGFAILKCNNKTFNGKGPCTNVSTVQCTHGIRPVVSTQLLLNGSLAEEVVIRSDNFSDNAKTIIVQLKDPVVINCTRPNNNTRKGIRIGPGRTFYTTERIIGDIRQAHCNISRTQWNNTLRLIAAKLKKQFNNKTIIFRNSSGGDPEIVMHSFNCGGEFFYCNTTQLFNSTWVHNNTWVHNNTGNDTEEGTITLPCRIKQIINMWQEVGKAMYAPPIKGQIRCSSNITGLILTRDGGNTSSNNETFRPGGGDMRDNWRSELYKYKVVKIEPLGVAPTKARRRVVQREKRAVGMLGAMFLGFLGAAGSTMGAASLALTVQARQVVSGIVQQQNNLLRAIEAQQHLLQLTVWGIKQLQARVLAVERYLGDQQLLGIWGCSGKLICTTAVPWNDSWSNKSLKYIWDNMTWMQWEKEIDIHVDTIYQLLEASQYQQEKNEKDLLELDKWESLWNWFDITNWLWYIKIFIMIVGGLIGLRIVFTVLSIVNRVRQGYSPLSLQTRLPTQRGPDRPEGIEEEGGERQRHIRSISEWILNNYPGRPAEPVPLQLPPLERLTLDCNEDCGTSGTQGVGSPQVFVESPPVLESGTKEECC

Row | Structure (SMILES) | IC50
1 | CCn1nc([N+](=O)[O-])c(C(C#N)c2nc3cc(C(F)(F)F)ccc3s2)c(Cl)c1=O (stereo not drawn) | 14.9 µM (active)
2 | CC(c1ccccc1)N1C(=O)c2ccc(C(=O)Nc3ccccc3C(=O)O)cc2C1=O (stereo not drawn) | 19.3 µM (active)
3 | Cc1c2c(=O)n(-c3nc4ccccc4s3)nc-2cc(O)n1Cc1ccccc1 | 13.8 µM (active)
